From article PMC4959752, “Pharmacokinetics in Wistar Rats of 5-[(4-Carboxybutanoyl)Amino]-2-Hydroxybenzoic Acid: A Novel Synthetic Derivative of 5-Aminosalicylic Acid (5-ASA) with Possible Anti-Inflammatory Activity” (PLoS ONE, 2016)
“And” between values parts separate entries of the source, which are not always exact repeats. Equal entries are not always repeated. Where two headings read alike, the source gives them in different places.

Experiments:
CD1 mice = system: CD1 mice; parameters: method as in ref 37 = [37]; 37 OECD Guidelines for the Testing of Chemicals 425: Acute Oral Toxicity—Up-and-Down-Procedure (UDP). 2008.; settings: acute toxicity; cited from earlier work
[1] = Blood-plasma partitioning (BP ratio); format: in vitro ADME, Wistar rats; settings: Wistar rat blood, 37°C, 4 h
Description: […] The plasma was separated from blood samples, and the concentration of C2 was determined based on a standard curve prepared with blank plasma using the RP-HPLC method. […] The concentration of C2 in blood cells was assumed to be equal to its unbound concentration in the plasma.

[2] = Plasma protein binding assay (ultrafiltration); format: in vitro ADME; settings: Wistar, rat; for fraction unbound at 4 h, 1 μg/mL / fraction unbound at 4 h, 5 μg/mL / fraction unbound at 4 h, 10 μg/mL / fraction unbound at 4 h, 20 μg/mL: ultrafiltration, 37°C
Description: The resulting samples were incubated for 4 h at 37°C. After incubation, a 100 μL aliquot was removed to analyze the total concentration, and the remaining 500 μL was transferred to a 10 kD cut-off ultrafiltration device (Millipore Corporation, USA), which was centrifuged at 2,000 g for 2 h at 37°C. A 100 μL aliquot of centrifuged plasma was analyzed for the free drug concentration using the RP-HPLC method. The amount of the test compound in the ultrafiltrate was determined by interpolating the main areas of the samples on standard curves containing known amounts of C2. The percentage of protein binding was calculated using the following formula: Protein binding ratio (%) = […].

MPO = system: MPO; parameters: method as in ref 34 = [34]; 34 Gutiérrez Sánchez M , Rosales-Hernández MC , Padilla-Martínez II , Correa-Basurto J , Mendieta-Wejebe JE . In vivo evaluation of two 5-aminosalicylic acid derivatives considered as potential therap; settings: model of inflammation in the mouse ear; cited from earlier work
[3] = Pharmacokinetic study of C2 in Wistar rats (plasma, HPLC, non-compartmental analysis); format: in vivo; settings: for k el: read-out: Ke (converted); for bioavailability: i.g. 100 mg/kg vs i.v. 50 mg/kg, read-out: F% orally (absolute oral bioavailability)
Description: Prior to the studies (on the day of C2 administration), the Wistar rats (n = 6) were cannulated. For intravenous (i.v.) treatment, a 24 G catheter was placed in the right lateral tail vein (for blood collection), and another catheter was placed in the left (for C2 administration) lateral tail vein of the rat as follows: the animal was placed inside a trap (special acrylic stocks for rats), the rat tail was exposed, and the distal region of the tail was disinfected with 70% ethanol; the tail veins were then dilated using a heating pad (approximately 45°C). An assistant held the tail of the rat while the left lateral vein was located, and a 24 G catheter was then firmly inserted into the posterior third of the caudal vein of the animal, where it was fixed with adhesive tape (for intragastric and intraperitoneal studies, only one catheter was placed on the right for blood collection).
For the intravenous study, a single dose of 50 mg/kg C2 was administered through the 24 G catheter when the rat was inside the trap. For the intragastric (i.g) pharmacokinetic study, a second group of rats (n = 6) received a single dose of 100 mg/kg using a 20 G gavage needle (animals were provided with a standard diet 4 h after dosing). For the intraperitoneal (i.p.) treatment, a third group of rats (n = 6) was injected with 75 mg/kg C2. In all pharmacokinetic studies, approximately 250 μL of blood was collected in heparinized tubes from each rat via the catheter in the right lateral tail vein prior to dosing and 5, 10, 20, 30, 45, 60, 90, 120, 180, 240, 300, 360, 540, 720 and 1440 min after dosing. These blood samples were supplemented with an equal volume of 0.9% sodium chloride solution. Plasma (100 μL) was harvested by centrifuging the blood samples at 8,000 rpm for 15 min, and the plasma was then immediately processed for analysis.
The samples were prepared as follows: briefly, 450 μL of acetonitrile was added to 100 μL of rat plasma, and the mixture was vortexed for 5 min. Subsequently, 450 μL of methanol was added to the sample, which was then vortexed again and centrifuged to precipitate proteins. Subsequently, 10 μL of the supernatant was introduced into the HPLC system. The plasma concentrations of C2 were determined using an RP-HPLC with UV detection method that had previously been validated for pharmacokinetic studies and the complementary assays performed in this work.
The plasma concentration–time data obtained after the i.v., i.g., and i.p. administration of C2 were subjected to a non-compartmental analysis using statistical moment theory. The pharmacokinetic parameters of C2 were calculated using the Kinetica 5.0 software (Adept Scientific Ltd), including the maximum plasma concentration (Cmax), time to reach Cmax (Tmax), elimination half-life (t1/2), area under the plasma concentration-time curve from time zero to the last measurable concentration (AUC0-t), area under the plasma concentration-time curve from time zero to infinity (AUCtot), mean residence time (MRT), clearance (CL), and apparent volume of distribution (Vd).

[4] = read-out: % Bound fraction of C2 in rat plasma ± SD (converted)
[5] = read-out: % Unbound fraction of C2 in rat plasma ± SD
[6] = pharmacokinetic model (Kinetica 5.0), bi-exponential decline of plasma concentration
[7] = pharmacokinetic model (Kinetica 5.0), calculated
[8] = rat, plasma, ip, single dose (100 mg/kg in abstract, 75 mg/kg in methods), Wistar rats
[9] = rat, plasma, iv, single dose 50 mg/kg, Wistar rats
[10] = rat, plasma, i.g. (oral), single dose 100 mg/kg, Wistar rats

O=C(O)CCCC(=O)Nc1ccc(O)c(C(=O)O)c1 [C2, 5-[(4-carboxybutanoyl)amino]-2-hydroxybenzoic acid]
LD50 (CD1 mice): > 2000 mg/kg | BP ratio ± SD ([1]; 5 μg/mL): 0.71 and 0.71 ± 0.01 | BP ratio ± SD ([1]; 10 μg/mL): 0.6 and 0.60 ± 0.03 | fraction unbound at 4 h, 1 μg/mL [2, 4]: 0.921 | fraction unbound at 4 h, 1 μg/mL [2, 5]: 0.921 ± 0.023 | fraction unbound at 4 h, 5 μg/mL [2, 4]: 0.925 | fraction unbound at 4 h, 5 μg/mL [2, 5]: 0.925 ± 0.018 | fraction unbound at 4 h, 10 μg/mL [2, 4]: 0.919 | fraction unbound at 4 h, 10 μg/mL [2, 5]: 0.919 ± 0.007 | fraction unbound at 4 h, 20 μg/mL [2, 4]: 0.898 | fraction unbound at 4 h, 20 μg/mL [2, 5]: 0.898 ± 0.008 | fraction unbound at 4 h ([2]; concentrations of 1 to 20 μg/mL, read-out: unbound fraction): 0.898 to 0.925 | fraction unbound at 4 h ([2]; summary in discussion, read-out: protein binding (converted)): 0.9 | effect on catalytic activity of MPO (MPO): inhibited the catalytic activity of MPO | detection in the plasma ([3]; 6 h after administration): no longer detected | half-life ([3]; Wistar, rat, plasma, ip, 75 mg/kg, i.p., single dose (100 mg/kg in abstract, 75 mg/kg in methods), Wistar rats, read-out: t1/2 e): 38 ± 3 min | half-life ([3]; Wistar, rat, plasma, iv, 50 mg/kg, i.v., single dose 50 mg/kg, Wistar rats, read-out: t1/2 e (elimination half-life)): ~33 min | Tmax ([3]; Wistar, rat, plasma, iv, 50 mg/kg, single dose 50 mg/kg, Wistar rats): 5 min | half-life ([3]; Wistar, rat, plasma, pharmacokinetic model (Kinetica 5.0), read-out: elimination half-life α (t1/2α)): 18 min | half-life ([3]; Wistar, rat, plasma, pharmacokinetic model (Kinetica 5.0), read-out: elimination half-life β (t1/2β)): 62 min | half-life ([3]; Wistar, rat, plasma, po, 100 mg/kg, i.g. (oral), single dose 100 mg/kg, Wistar rats, read-out: t1/2 e): ~27 min | Cmax ([3]; i.g. (oral), single dose 100 mg/kg, Wistar rats, plasma): 2500 ± 300 ng/mL | Ka ([3]; i.p., single dose (100 mg/kg in abstract, 75 mg/kg in methods), Wistar rats): 1.2 ± 0.2 h⁻¹ | Cp^0 ([3]; i.v., single dose 50 mg/kg, Wistar rats): 26900 ± 3700 ng/mL | α [3, 6]: 0.037 min⁻¹ | β [3, 6]: 0.011 min⁻¹ | K12 [3, 7]: 0.008 min⁻¹ | K21 [3, 7]: 0.022 min⁻¹ | AUC [3, 8]: 12500 ng·h/mL | MRT [3, 8]: 69 min | Cmax ([3]; rat, plasma, ip, single dose (100 mg/kg in abstract, 75 mg/kg in methods), Wistar rats, read-out: Cmax): 8700 ± 400 ng/mL | k el [3, 8]: 0.00025 s⁻¹ | AUC [3, 9]: 20800 ng·h/mL | MRT [3, 9]: 57 min | Vd [3, 9]: 2 ± 0.2 L/kg | clearance [3, 9]: 13 ± 3 mL/min | k el [3, 9]: 0.000361 s⁻¹ | bioavailability ([3]; rat, plasma, oral, Wistar rats): ~13% | bioavailability ([3]; rat, plasma, po, Wistar rats): 13% | Cmax ([3]; rat, plasma, po, intragastric administration, 100 mg/kg, Wistar rats (abstract), read-out: Cmax): 2500 ng/mL | AUC [3, 10]: 2620 ng·h/mL | MRT [3, 10]: 49 min | k el [3, 10]: 0.0005 s⁻¹
